Measurements as given in patent US7750053B2, “Compositions and methods for alleviating hypertension or preventing a rise in blood pressure” (KAO Corporation, priority 2000, dated 2010).
Marks after values point to notes of the source that are not given here.

Columns and labels:
calcium = details: from spike of Schizonepeta tenuifolia Briq.; JP Kokai Hei 4-243822; cited from earlier work
[1] = test system: spontaneously hypertensive rats (SHR); assay: Evaluation of blood pressure reduction (single administration, systolic blood pressure of the caudal artery); type: in vivo, rat; details: male 15 week-old SHR, fasted overnight, solution in physiological saline (0.2% actives in total), 1 mL/kg, mean ± SD, n=5; for Systolic blood pressure (changing ratio %) after 10 minutes: 10 minutes after administration vs prior to administration; for Systolic blood pressure (changing ratio %) After 1 hour: 1 hour after administration vs prior to administration
Protocol: Prior to initiation of the experimental studies in order to accustom the test animals to sphygmomanometric operation the blood pressure of each test animal—male, 15 week-old, spontaneously hypertensive rats (“SHR”)—was preliminarily measured for 7 successive days using a commercially available noninvasive sphygmomanometer for rats (manufactured by Softlon Co., Ltd.).
Rats were all bred in a breeding room in a rat region under uniform conditions at a room temperature at 25±1° C., humidity of 55±10% RH and illumination for 12 hours (from 7:00 am to 7:00 pm).
In the control group (Control Plot, see Table 1), physiological saline was employed. As a material to be administered, a solution obtained by dissolving 0.2 wt. % (which will hereinafter be simply described as %) of caffeic acid in physiological saline, a solution obtained by dissolving 0.2% of a chlorogenic acid in physiological saline, a solution obtained by dissolving 0.2% of ferulic acid in physiological saline and a solution obtained by dissolving 0.1% of caffeic acid and 0.1% of ferulic acid in physiological saline were used in Test plot 1, Test plot 2, Test plot 3 and Test plot 4, respectively. In Test plot 5, a solution obtained by dissolving 0.1% of a chlorogenic acid and 0.1% of ferulic acid in physiological saline was used, while in Test plot 6, a solution obtained by dissolving 0.05% of caffeic acid, 0.05% of a chlorogenic acid and 0.1% of ferulic acid in physiological saline was used. Each of them was administered from the common carotid artery. The dosage was 1 mL/kg.
SHRs were fasted overnight and employed for each test group, each group consisted of 5 rats. Systolic blood pressures of the caudal artery prior to intravenous administration, and 10 minutes and 1 hour each after administration were measured.
In Table 1, the changing ratio (%) in systolic blood pressure for each experimental group is reported by its mean value (%) and by its standard deviation. The Student's t-test was used to indicate the statistical significance of the experimental data. A significance level of 5% or less is indicated as “*” in Table 1, and significance level of 0.1% or less as “***”.
A lowering ratio of the systolic blood pressure of each of 10 minutes and 1 hour after administration to the systolic blood pressure prior to administration is shown in Table 1.

[2] = target: angiotensin I converting enzyme (ACE) (Homo sapiens, UniProt P12821); details: polyphenols of unripe Rosaceae fruit juice; JP Kokai Hei 8-259453; cited from earlier work
Sequence of angiotensin I converting enzyme (ACE) (P12821 30-1306, species assumed): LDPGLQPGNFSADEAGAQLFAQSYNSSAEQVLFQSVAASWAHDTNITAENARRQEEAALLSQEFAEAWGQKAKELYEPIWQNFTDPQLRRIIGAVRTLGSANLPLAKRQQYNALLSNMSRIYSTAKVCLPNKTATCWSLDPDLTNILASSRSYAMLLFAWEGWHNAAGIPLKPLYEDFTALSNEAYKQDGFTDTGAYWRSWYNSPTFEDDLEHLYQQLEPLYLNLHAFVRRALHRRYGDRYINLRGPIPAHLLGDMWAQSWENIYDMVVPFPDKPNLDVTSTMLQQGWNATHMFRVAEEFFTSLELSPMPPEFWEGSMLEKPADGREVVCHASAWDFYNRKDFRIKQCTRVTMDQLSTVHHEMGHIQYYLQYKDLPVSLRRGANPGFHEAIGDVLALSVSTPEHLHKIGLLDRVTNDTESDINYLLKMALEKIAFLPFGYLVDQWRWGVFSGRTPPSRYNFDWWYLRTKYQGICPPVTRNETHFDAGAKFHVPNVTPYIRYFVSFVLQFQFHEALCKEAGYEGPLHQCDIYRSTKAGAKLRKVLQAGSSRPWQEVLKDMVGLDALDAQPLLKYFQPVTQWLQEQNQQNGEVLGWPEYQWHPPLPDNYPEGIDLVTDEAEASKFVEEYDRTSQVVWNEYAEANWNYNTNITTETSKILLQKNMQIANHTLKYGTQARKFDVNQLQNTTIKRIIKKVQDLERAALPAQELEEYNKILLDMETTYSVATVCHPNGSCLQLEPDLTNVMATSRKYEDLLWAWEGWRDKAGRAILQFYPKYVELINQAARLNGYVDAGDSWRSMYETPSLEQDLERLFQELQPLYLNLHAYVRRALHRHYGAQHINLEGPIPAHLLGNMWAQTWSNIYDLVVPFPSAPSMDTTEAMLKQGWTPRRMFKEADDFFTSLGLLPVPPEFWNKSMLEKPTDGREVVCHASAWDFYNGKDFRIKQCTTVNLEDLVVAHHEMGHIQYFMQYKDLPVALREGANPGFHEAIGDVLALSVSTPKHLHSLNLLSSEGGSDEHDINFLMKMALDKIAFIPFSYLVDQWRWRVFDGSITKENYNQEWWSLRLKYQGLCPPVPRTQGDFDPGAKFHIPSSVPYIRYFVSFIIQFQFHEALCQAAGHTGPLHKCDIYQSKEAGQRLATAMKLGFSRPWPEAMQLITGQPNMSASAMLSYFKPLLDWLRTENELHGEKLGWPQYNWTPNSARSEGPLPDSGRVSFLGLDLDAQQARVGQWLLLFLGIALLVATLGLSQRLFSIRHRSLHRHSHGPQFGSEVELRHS

| Structure (SMILES) | calcium antagonism (in words) (calcium) | Systolic blood pressure (changing ratio %) after 10 minutes [1] | Systolic blood pressure (changing ratio %) After 1 hour [1] | angiotensin I converting enzyme (ACE) inhibitory action (in words) [2] |
| --- | --- | --- | --- | --- |
| O=C(O)/C=C/c1ccc(O)c(O)c1 [Caffeic acid (CA), caffeic acid] | exerts calcium antagonism | −4.1 ± 2.1% | −10.2 ± 0.5*** % | inhibitory action |
| O=C(/C=C/c1ccc(O)c(O)c1)O[C@@H]1C[C@](O)(C(=O)O)C[C@@H](O)[C@H]1O [Chlorogenic acid (CHA), chlorogenic acid] |  | −3.2 ± 2.6% | −7.2 ± 1.7* % | inhibitory action |
| COc1cc(/C=C/C(=O)O)ccc1O [Ferulic acid (FA), ferulic acid] |  | −7.8 ± 0.8*** % | 0.7 ± 2.6% |  |
